From publication PMC6240031, “CYP6AE gene cluster knockout in Helicoverpa armigera reveals role in detoxification of phytochemicals and insecticides” (Nature Communications, 2018)

Assays:
Assay in all cases: substrate depletion, UPLC-MS/MS
Format in all cases: biochemical
Details in all cases: 20 uM substrate, NADPH regeneration system, 0.1 M potassium phosphate pH 7.4, 30 C, 1 h, microsomes
[1] = target: T1, CYP6AE11 (Helicoverpa armigera, UniProt A0A068ETU4)
T1 construct: full ORF, baculovirus (Bac-to-Bac) in High Five cells, microsomes, co-expressed with H. armigera cytochrome P450 reductase (HaCPR)
T1 sequence (A0A068ETU4 1-522): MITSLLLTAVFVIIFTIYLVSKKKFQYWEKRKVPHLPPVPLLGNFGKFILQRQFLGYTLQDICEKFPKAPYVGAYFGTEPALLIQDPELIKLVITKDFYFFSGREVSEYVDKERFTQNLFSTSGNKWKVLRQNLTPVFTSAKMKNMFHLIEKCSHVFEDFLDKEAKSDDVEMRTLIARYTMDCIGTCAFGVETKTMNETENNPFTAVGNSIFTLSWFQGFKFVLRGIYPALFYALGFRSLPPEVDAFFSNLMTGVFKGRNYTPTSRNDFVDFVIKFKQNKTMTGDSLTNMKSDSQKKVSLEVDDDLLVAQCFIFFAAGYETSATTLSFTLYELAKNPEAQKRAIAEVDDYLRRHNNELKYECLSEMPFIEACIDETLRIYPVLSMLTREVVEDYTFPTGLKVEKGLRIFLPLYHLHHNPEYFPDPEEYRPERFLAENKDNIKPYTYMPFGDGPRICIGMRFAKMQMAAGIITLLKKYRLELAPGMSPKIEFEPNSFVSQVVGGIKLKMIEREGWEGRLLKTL

[2] = target: T2, CYP6AE14 (Helicoverpa armigera, UniProt A0A068EU65)
T2 construct: full ORF, baculovirus (Bac-to-Bac) in High Five cells, microsomes, co-expressed with H. armigera cytochrome P450 reductase (HaCPR)
T2 sequence (A0A068EU65 1-526): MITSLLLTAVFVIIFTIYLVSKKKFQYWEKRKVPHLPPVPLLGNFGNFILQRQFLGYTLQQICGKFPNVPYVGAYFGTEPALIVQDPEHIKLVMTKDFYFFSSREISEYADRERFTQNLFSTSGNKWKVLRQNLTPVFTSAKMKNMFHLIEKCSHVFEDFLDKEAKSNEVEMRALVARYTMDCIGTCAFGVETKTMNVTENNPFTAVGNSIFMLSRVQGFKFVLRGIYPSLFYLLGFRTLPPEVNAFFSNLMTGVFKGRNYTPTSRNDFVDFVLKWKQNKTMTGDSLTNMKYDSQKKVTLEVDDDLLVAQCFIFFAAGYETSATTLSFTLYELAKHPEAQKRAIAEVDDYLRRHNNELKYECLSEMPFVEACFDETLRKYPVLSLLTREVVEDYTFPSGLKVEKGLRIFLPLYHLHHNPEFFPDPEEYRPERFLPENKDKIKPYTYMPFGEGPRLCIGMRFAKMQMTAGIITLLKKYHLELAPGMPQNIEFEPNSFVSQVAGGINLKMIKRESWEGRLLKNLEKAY

[3] = target: T3, CYP6AE19 (Helicoverpa armigera, UniProt A0A068EVL0)
T3 construct: full ORF, baculovirus (Bac-to-Bac) in High Five cells, microsomes, co-expressed with H. armigera cytochrome P450 reductase (HaCPR)
T3 sequence (A0A068EVL0 1-528): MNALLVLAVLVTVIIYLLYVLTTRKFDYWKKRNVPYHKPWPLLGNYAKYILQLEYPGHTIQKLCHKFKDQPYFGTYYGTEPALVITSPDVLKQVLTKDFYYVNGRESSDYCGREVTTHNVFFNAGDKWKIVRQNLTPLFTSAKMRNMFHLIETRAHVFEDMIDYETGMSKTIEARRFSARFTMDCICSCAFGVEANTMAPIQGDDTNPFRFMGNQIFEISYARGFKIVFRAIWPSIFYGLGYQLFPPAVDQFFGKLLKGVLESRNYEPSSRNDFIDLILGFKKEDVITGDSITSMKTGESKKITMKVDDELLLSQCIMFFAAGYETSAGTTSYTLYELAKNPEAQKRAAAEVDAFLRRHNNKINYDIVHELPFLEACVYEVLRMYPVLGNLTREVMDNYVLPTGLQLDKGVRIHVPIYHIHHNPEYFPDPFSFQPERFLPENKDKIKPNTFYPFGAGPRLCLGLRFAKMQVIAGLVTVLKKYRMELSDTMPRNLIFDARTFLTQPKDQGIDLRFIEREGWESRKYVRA

CCCCCCCCCCCC(C)=O [2-tridecanone]
substrate depletion, UPLC-MS/MS [1]: 2-tridecanone was metabolized by three CYP6AE P450s: CYP6AE11, CYP6AE14, and CYP6AE19 | substrate depletion, UPLC-MS/MS [2]: 2-tridecanone was metabolized by three CYP6AE P450s: CYP6AE11, CYP6AE14, and CYP6AE19 | substrate depletion, UPLC-MS/MS [3]: 2-tridecanone was metabolized by three CYP6AE P450s: CYP6AE11, CYP6AE14, and CYP6AE19
